Biological target: T1, human FXa (Homo sapiens, UniProt P00742)
T1 construct: purchased Enzyme Research Laboratories, Inc
Experiment: Inhibitory effect on activated blood coagulation factor X (chromogenic substrate S-2222)
Assay type: biochemical
Conditions: human FXa 0.05 U/ml, S-2222 0.5 mM, 37° C., pH 8.4
Description: A substrate solution was prepared by dissolving chromogenic substrate S-2222 at the concentration of 0.625 mM (final concentration 0.5 mM) in 100 mM Tris buffer (pH 8.4) containing 200 mM sodium chloride and 0.1% bovine serum albumin, and a test compound solution was prepared by dissolving a test compound in a buffer containing 10% dimethyl sulfoxide. The test compound solution (25 μl) was added to the substrate solution (200 μl). In the control group, 25 μl of the buffer containing 10% dimethyl sulfoxide was used instead of the test compound solution.
After pre-warming at 37° C. for 3 minutes, 25 μl of human FXa (Enzyme Research Laboratories, Inc.) dissolved at 0.5 U/ml in a buffer was added to the reaction mixture (final concentration of FXa: 0.05 U/ml) to initiate the reaction. During a 5-minute reaction at 37° C., the absorbance at 405 nm was monitored continuously on a 96 well microplate reader (Spectra MAX250, Molecular Devices) and the increase of absorbance was used as an index of FXa activity. In order to evaluate FXa inhibitory activity of a test compound, the 50% inhibitory concentration of the test compound for FXa activity compared to the control group (IC50 value) was calculated using analytic soft (GraphPad Prism, GraphPad Software, Inc.).

T1 sequence (P00742 235-488 limits assumed): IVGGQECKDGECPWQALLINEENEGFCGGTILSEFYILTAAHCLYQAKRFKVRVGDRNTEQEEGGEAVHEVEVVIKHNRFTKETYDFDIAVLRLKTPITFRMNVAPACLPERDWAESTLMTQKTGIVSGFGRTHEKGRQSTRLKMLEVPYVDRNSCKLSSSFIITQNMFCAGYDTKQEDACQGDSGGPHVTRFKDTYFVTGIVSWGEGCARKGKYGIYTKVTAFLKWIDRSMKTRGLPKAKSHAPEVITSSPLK
T1 sequence (P00742 41-179 partner limits assumed): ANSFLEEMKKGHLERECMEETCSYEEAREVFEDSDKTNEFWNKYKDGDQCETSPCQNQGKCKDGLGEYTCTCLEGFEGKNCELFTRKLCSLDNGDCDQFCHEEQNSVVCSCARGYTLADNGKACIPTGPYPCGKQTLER

COc1ccc2oc(C(=O)Nc3ccc(Cl)cn3)c(NC(=O)[C@H]3CC[C@H](N(C)C)CC3)c2n1 [Example 36]
IC50: 10.8 nM

Reference: patent US7737161B2, “Condensed furan compounds” (Mitsubishi Tanabe Pharma Corporation, priority 2003, dated 2010)
